Columns and labels:
[1] = IM depot of suspended olanzapine pamoate particles; cited from earlier work
[2] = IM depot injection, mean particle diameter 6.63, 10.68, 17.16 or 29.96 microns, dogs; cited from earlier work
[3] = Stability of particles suspended in pH 7 phosphate buffer on storage, crystal form followed by DSC; assay type: physicochemical; details: suspended in phosphate buffer pH 7, stored at 30° C. and 40° C.
Description: With reference to FIG. 2a, the conversion of Form I to Form II was monitored by periodically taking aliquots of the stored suspension, isolating the suspended solids by filtration and drying the isolated solids at room temperature. DSC analysis was performed on the isolated, dried solids using a 10 mg sample of the solids and a Mettler DSC 822e programmed to heat at a rate of 10° C./min, from 25° C. to 250° C. The results of this study are presented in, with the result shown in the upper traces of FIG. 2a.

[4] = Plasma levels of asenapine after IM depot injection in rabbits; assay type: in vivo, New Zealand white rabbits; details: 1 mL IM injection, 20 wt % suspension, Form I mean particle size 20 micron, Form II 16 micron, rabbit
Description: Each of the formulations prepared in Example 2 were administered to a series of experimental animal subjects (New Zealand white rabbits) as a depot injection. A depot of 1 mL volume of the formulation selected was administered into the left limb of the subject. At time intervals following injection, blood samples were collected from the subject's ear artery in 0.03 mL of 0.2M EDTA, Samples were collected at 1, 3, and 6 hours post injection, then 1, 2, 3, and 6 days post injection, then on days 10, 13, 17, 20, 24 and 25. Once collected, blood samples were centrifuged for 2 min. at room temperature (125,000 N/kg). Plasma samples thus obtained were analyzed by LC/MS after adding an internal standard. The asenapine and internal standard were isolated from the sample by solid phase extraction. […]
In additional animal studies, and with Reference to FIG. 10, using the same procedures described above, suspensions comprising 20 wt % of asenapine hemipamoate of Form I (mean particle size of 20 micron) and Form II (mean particle size 16 micron) were prepared. […] Plasma levels of asenapine were determined using the above-described procedure. […]

[5] = Solubility in aqueous phosphate buffer at pH 7
[6] = In vitro dissolution in USP paddle stirring dissolution apparatus; details: for rate of dissolution, Form I compared with Form II (FIG. 8a): phosphate buffered saline 10 mM pH 7.0, 37° C., 100 RPM, similar particle size fractions
Description: To carry out these studies, particle, fractions of crystalline Form II of asenapine hemipamoate having d50, values of 3.5 microns, 7 microns, and 20 microns respectively, (see FIG. 7e) were obtained and placed into one of the dissolution vessels of the apparatus. Prior to charging a dissolution vessel with an aliquot of particles, each of the vessels was filled with 1 L of phosphate buffered saline (10 mM, adjusted to pH 7.0) and fitted with a probe that contained a mirror and optical arrangement in its tip defining a fixed sample path. Each probe was optically connected to a central light source and detector permitting real-time photometric monitoring of the concentration of asenapine in solution as dissolution proceeded during the investigation.
The particle fractions were prepared for use in the apparatus by dispersing the sample (20 mg) in 1 mL of an aqueous solution comprising 3 wt. % macrogol 3400, 0.118 wt. % of disodium hydrogen phosphate, 0.047 wt. % sodium dihydrogen phosphate and 0.76 wt. % sodium chloride. Each determination was carried out by adjusting the apparatus to the desired dissolution conditions (temperature, paddle speed, pH of dissolution media) and injecting 50 microliter of the selected crystalline Form II of asenapine hemipamoate dispersion (equivalent to 1 mg of crystalline Form II of asenapine hemipamoate) into a dissolution vessel filled with the desired dissolution medium. Asenapine hemipamoate concentration in the dissolution medium was monitored optically using the probe system described above during the course of the dissolution.
The above-described in vitro testing methodology was used to compare the dissolution of crystalline crystalline Form I of asenapine hemipamoate hemipamoate (as precipitated) and crystalline Form II of asenapine hemipamoate (as precipitated). Accordingly, 20 mg of a particle fraction of crystalline Form I of asenapine hemipamoate having a d50 value of 19 microns, a d90 value of 41 microns and a d10 value of 3 microns was dispersed into 2 mL of a polysorbate 80 solution. An aliquot of 100 microliter of the dispersion was introduced into dissolution medium contained in a paddle stirring apparatus as described above. For these tests the dissolution vessels of the apparatus were filled with 1 L of phosphate buffered saline (10 mM, adjusted to pH 7.0). The temperature of the dissolution medium was maintained at 37° C. and the apparatus paddle speed was set at 100 RPM.
For comparison, a 100 microliter sample of a dispersion comprising 100 mg of crystalline Form II of asenapine hemipamoate particle fraction having a d50 value of 16 microns, a d90 value of 50 microns, and a d10 value of 2 microns, dispersed in 1 mL of a polysorbate 80 solution, as described above was studied under the same conditions and dissolution medium used to study the sample containing crystalline Form I of asenapine hemipamoate.

[7] = Plasma concentration of asenapine after depot injection in patients with stable chronic schizophrenia; assay type: in vivo, human; details: 1.0 mL of 20 wt % suspension in deltoid muscle, d50 10 microns
Description: Formulations of the invention were studied in human patients diagnosed with stable chronic schizophrenia. Using the same procedure described above, a suspension was prepared comprising 20 wt % of crystalline Form II of asenapine hemipamoate. The Form II particle fraction employed to prepare the suspension yielded a d10 value of 3 microns, a d90 value of 27 microns and a d50 value of 10 microns. An injection of 1.0 mL volume of the suspension was administered in the deltoid muscle of the upper arm by inserting the needle in the thickest part of the deltoid muscle at a 90 degree angle to the skin, followed by aspiration for 5 to 10 seconds, followed by injection of the depot over a 10 second interval. The plasma concentration of asenapine provided by the depot was observed using the above-described procedure.

SMILES: Cc1cc2c(s1)Nc1ccccc1N=C2N1CCN(C)CC1.O.O=C(O)c1cc2ccccc2c(Cc2c(O)c(C(=O)O)cc3ccccc23)c1O [olanzapine pamoate]
- adverse events in trials [1]: extreme sedation and reversible coma

SMILES: CCC1(c2ccccc2)C(=O)NC(=O)NC1=O [phenobarbital]
- plasma concentrations of phenobarbital versus mean particle diameter (FIG. 1) [2]: tracked inversely with the mean particle diameter

SMILES: CN1C[C@@H]2c3ccccc3Oc3ccc(Cl)cc3[C@H]2C1.CN1C[C@@H]2c3ccccc3Oc3ccc(Cl)cc3[C@H]2C1.O=C(O)c1cc2ccccc2c(Cc2c(O)c(C(=O)O)cc3ccccc23)c1O [crystalline Form I of asenapine hemipamoate] [reference compound]
- stability of crystalline form on storage of suspension (DSC of recovered solids) [3]: slowly converted to crystalline Form II of asenapine hemipamoate
- initial plasma levels, Form I versus Form II (FIG. 10) [4]: burst release
- solubility of Form I relative to Form II [5]: approximately 4 times
- rate of dissolution, Form I compared with Form II (FIG. 8a) [6]: significantly higher

SMILES: CN1C[C@@H]2c3ccccc3Oc3ccc(Cl)cc3[C@H]2C1.CN1C[C@@H]2c3ccccc3Oc3ccc(Cl)cc3[C@H]2C1.O=C(O)c1cc2ccccc2c(Cc2c(O)c(C(=O)O)cc3ccccc23)c1O [crystalline Form II of asenapine hemipamoate]
- stability of crystalline form on storage of suspension (DSC of recovered solids) [3]: does not decompose or convert to any other crystalline form
- period of controlled release of asenapine (FIG. 11) [7]: about 4 weeks
- effect of temperature of dissolution medium on dissolution behavior (FIG. 7b) ([6]; 35° C. to 39° C.): reasonably insensitive to variation in temperature
- effect of paddle speed on dissolution behavior (FIG. 7d) ([6]; 50 rpm to 150 rpm): reasonably insensitive to variation in the paddle speed
- effect of dissolution medium pH on rate of dissolution (FIG. 7c) ([6]; pH 6 to pH 8, d50 3.5 or 20 micron fractions): does not significantly vary the rate of dissolution
- rate of dissolution, Form I compared with Form II (FIG. 8a) [6]: dissolve much slower
- effect of d50 value of particle fraction on rate of dissolution (FIG. 7a) ([6]; same conditions, d50 3.5, 7, 20 microns): greatly influenced by the d50 value
